Columns and labels:
[1] = biological target: GABA-A receptor; anion channel; assay: (§1) Displacement of [3H]GABA from gamma-aminobutyric-acid A (GABA-A) receptor; type: protein-complex assay, Rattus norvegicus
[2] = biological target: GABA-A receptor; anion channel; assay: Displacement of [3H]muscimol from Gamma-aminobutyric acid A (GABA-A) receptor; type: protein-complex assay, Rattus norvegicus
[3] = as §1; set-up: species or system Rattus norvegicus

Work on COc1cc2c3cc1Oc1cc(ccc1O)C[C@@H]1c4c(cc(OC)c(O)c4Oc4ccc(cc4)C[C@@H]3N(C)CC2)CC[N+]1(C)C yielded an IC50 [1] of 58 µM.

Oc1onc2c1CCNCC2 showed an IC50 [1] of 16 µM.

Molecule CC12CC(=O)C3C(CCC4CC(O)CCC43C)C1CC(=N)N2 (stereo not given) has an IC50 [1] of 0.02 µM.

For c1ccc2c(c1)Cc1ccccc1-n1c-2nnc1N1CCNCC1 [PITRAZEPINE], the IC50 [2] was 0.24 µM.

With O=C1C=C2C=C[C@@H]3C[C@@]2(O1)[C@H]1CCCCN31 [SECURININE] the IC50 [3] was 50 µM.
